Paper PMC9138090, “Study on the Neuroprotective, Radical-Scavenging and MAO-B Inhibiting Properties of New Benzimidazole Arylhydrazones as Potential Multi-Target Drugs for the Treatment of Parkinson’s Disease” (Antioxidants, 2022)
Entries after “also recorded” stand apart in the source; their conditions may differ.

How the values were obtained:
rat brain synaptosomes [1] = test: 6-OHDA-induced neurotoxicity, synaptosomal viability; assay type: cell-based; settings: for protective effect in 6-OHDA model (in words): 10 µM, synaptosomal viability and GSH level
Description: (§1) Synaptosomes were prepared from brains of adult male Wistar rats. The brains were homogenized in 10 volume of cold buffer 1, containing 5 mM HEPES and 0.32 M sucrose (pH = 7.4). The brain homogenate was centrifuged twice at 1000× g for 5 min at 4 °C. The supernatant was collected and centrifuged 3 times at 10,000× g for 20 min at 4 °C. The pellet was re-suspended in ice-cold buffer 1. The synaptosomes were isolated by using Percoll reagent to prepare the gradient. Synaptosomes were re-suspended and incubated in buffer 2, containing 290 mM NaCl, 0.95 mM MgCl2 × 6H2O, 10 mM KCl, 2.4 mM CaCl2 × H2O, 2.1 mM NaH2PO4, 44 mM HEPES, and 13 mM D-glucose. Incubations were performed in a 5% CO2 + 95% O2 atmosphere. The content of synaptosomal protein was determined according to the method of Lowry et al. using bovine serum albumin as a standard.
(§2) Synaptosomal viability was measured by (3-(4,5)-dimethylthiazol-2-yl)-2,5-diphenyl tetrazolium bromide)-test, described by Mungarro-Menchaca et al. The synaptosomes were incubated with the compounds and then treated with (3-(4,5)-dimethylthiazol-2-yl)-2,5-diphenyl tetrazolium bromide) solution (0.5 mg/mL) for 1 h at 37 °C. After incubation they were centrifuged at 15,000× g for 1 min. The formed formazan crystals were dissolved in DMSO (Dimethyl sulfoxide). The extinction was measured spectrophotometrically at λ = 580 nm.
The metabolism and oxidation of dopamine cause reactive oxygen radicals and reactive quinones to be produced, which could lead to neurotoxicity and neurodegeneration. The synaptosomes were incubated with the compounds (10 µM) for 30 min and then 6-hydroxydopamnine (150 mmol/L) was used to induce neurotoxicity. […] After 1 h, they were centrifuged on a microcentrifuge for 1 min at 15,000 rpm. The precipitates were gently mixed with buffer B and glucose and centrifuged for a second time at 15,000 rpm for 1 min. After the second wash, buffer B and glucose were added to the precipitates.
In the presented experiments, an in vitro assessment of the possible antioxidant and neuroprotective effects of the newly synthetized compounds was performed in a model of 6-OHDA induced toxicity in rat brain synaptosomes. 6-OHDA is a neurotoxicant that structurally resembles dopamine and can be used in different in vivo and in vitro models for neurotoxicity. This model resembles the histological, biochemical, and physiological characteristics of neurodegenerative diseases such as Parkinson’s and Alzheimer’s disease. […] However, their uptake into brain synaptosomes is similar among primates and rodents and they are suitable in vitro models for PD. The main mechanism of 6-OHDA toxicity includes induction of oxidative stress. It undergoes auto-oxidation or metabolic degradation to p-quinone and produces hydrogen peroxide, superoxide, and hydroxyl radicals. The process causes lipid peroxidation, protein oxidation, and DNA oxidation and finally results in oxidative stress and mitochondrial dysfunction. Rat brain synaptosomes were pretreated with compounds 3e, 3h, 3i, 3m, melatonin, and rasagiline (10 μM); after that, the samples were subjected to 6-OHDA (150 mmol/L, 1 h). The protective effects were evaluated by measurement of synaptosomal viability (MTT-test) and GSH levels (Figure 3).

rat brain synaptosomes [2] = test: Synaptosomal viability (MTT), toxicity evaluation; assay type: cell-based; settings: concentrations < 250 µM (1 to 250 µM tested)
Description: as §1, §2
The low toxicity and substantial neuroprotective properties shown by some of the potential drug candidates in human neuroblastoma SH-SY5Y cells directed the experimental work to be elaborated on a different cellular in vitro model using freshly isolated rat brain synaptosomes for the evaluation of the protective effects and toxicity of selected promising compounds [56]. The rat brain synaptosomes represent a terminal part of the axons and contain synaptic vesicles, mitochondria, lysosomes, parts of the cell membrane, neurotransmitters, which diffuse across the synaptic cleft. Besides the presynaptic membrane, a part of postsynaptic membrane with the postsynaptic density is often attached to the nerve ending. In their experiments, Student and Edwards examined the subcellular localization of the A and B forms of MAO in rat brain. […] The authors conclude from the data that MAO-B activity is, indeed, associated with synaptosomes and may be non-uniformly located among different populations of synaptic endings. The functional-metabolic status of the synaptosomes was evaluated by measuring the synaptosomal viability (MTT assay) and the levels of reduced gluthathione (GSH) (Figure 2). […] At the highest used concentration (250 µM) a relative decrease in the synaptosomal viability and the levels of reduced glutathione was observed.

[3] = Superoxide scavenging, xanthine/xanthine oxidase NBT assay; assay type: biochemical; settings: for change in sample absorbance vs. controls (in words): whole tested concentration range
Description: Superoxide radicals scavenging activity (enzymatic assay): The assay comprises the preparation of 1 mL PBS samples containing the following substances: 1 mmol/l xanthine; 20 µL xanthine oxidase (100 IU/L); 0.04 mmol/L NBT; either the tested hydrazone or buffer for the controls. The samples were incubated at 37 °C and the absorbance was measured at 560 nm.
The results from both assays have been presented as a percentage of the control sample.
The potency of the compounds selected as the most promising from the cell model systems and hMAOB inhibitory studies was estimated against enzymatically (xanthine/XO system) and non-enzymatically (KO2/NBT) produced superoxide radicals (Figure 7). In the xanthine-xanthine oxidase system the generation of O2^−^● is a result of an enzymatic reaction. The molecular mechanism of action of the XO enzyme is associated with catalysation of the reaction of oxidation of hypoxanthine and xanthine and generation of uric acid. During the process of reoxidation of the enzyme, the molecular oxygen acts as an electron acceptor and the formation of physiologically important ROS, such as the superoxide radical (O2^−^●) and hydrogen peroxide (H2O2), has been observed. In the potassium superoxide-containing systems, superoxide radical generation is due to the direct addition of the KO2 to the water sample solution. The release of a superoxide anion was estimated via NBT reduction activity, indicating detectable superoxide anion levels. The application of these two alternative model systems will afford the possibility to perform a more accurate interpretation of the obtained results. Since in the enzyme-free model system, the release of the superoxide in the small sample volume is a very fast process, there is a risk of local effects that is avoided in the xanthine-xanthine oxidase system. The use of enzyme reaction provides a relatively slow generation of the superoxide radical and steady concentration.

rat brain synaptosomes [4] = test: GSH level in isolated synaptosomes, toxicity evaluation; assay type: cell-based; settings: concentrations < 250 µM (1 to 250 µM tested)
Description: as §1
Following treatment with the tested compounds, the glutathione levels were determined using Ellman reagent (DTNB), which forms color complexes with the SH group at pH = 8, with maximum absorbance at 412 nm. The synaptosomes were centrifuged at 500× g for 1 min and the sediment was used to measure GSH level. The sediment was precipitated with 5% TCA, then centrifuged for 10 min at 4000× g and the GSH level in the supernatant was measured using DTNB spectrophotometrically at 412 nm. The biochemical parameters were determined by spectrophotometric methods using a Spectro UV-VIS Split spectrophotometer (LaboMed.Inc, Los Angeles, CA, USA).
The low toxicity and substantial neuroprotective properties shown by some of the potential drug candidates in human neuroblastoma SH-SY5Y cells directed the experimental work to be elaborated on a different cellular in vitro model using freshly isolated rat brain synaptosomes for the evaluation of the protective effects and toxicity of selected promising compounds [56]. The rat brain synaptosomes represent a terminal part of the axons and contain synaptic vesicles, mitochondria, lysosomes, parts of the cell membrane, neurotransmitters, which diffuse across the synaptic cleft. Besides the presynaptic membrane, a part of postsynaptic membrane with the postsynaptic density is often attached to the nerve ending. In their experiments, Student and Edwards examined the subcellular localization of the A and B forms of MAO in rat brain. […] The authors conclude from the data that MAO-B activity is, indeed, associated with synaptosomes and may be non-uniformly located among different populations of synaptic endings. The functional-metabolic status of the synaptosomes was evaluated by measuring the synaptosomal viability (MTT assay) and the levels of reduced gluthathione (GSH) (Figure 2). […]

Row | Compound | protective effect in 6-OHDA model (in words) (rat brain synaptosomes [1]) | effect on rat brain synaptosomes viability (rat brain synaptosomes [2]) | change in sample absorbance vs. controls (in words) [3] | effect on level of GSH in synaptosomes (rat brain synaptosomes [4]) | decrease of NBT reduction ([3]; xanthine/xanthine oxidase assay) [%] | increase of synaptosomal viability vs. 6-OHDA treatment (rat brain synaptosomes [1]; 10 µM pretreatment, 6-OHDA 1 h) [%] | % of the control ratio, NBT reduction ([3]; maximal tested concentration) [%]
1 | COc1ccc(C=NNC(=O)CCn2c(=S)n(CCC(=O)NN=Cc3ccc(OC)cc3O)c3ccccc32)c(O)c1 [3m, 3,3′-(2-Thioxo-1H-benzo[d]imidazole-1,3(2H)-diyl)bis(N′-(2-hydroxy-4-methoxybenzylidene)propanehydrazide)] | less pronounced protective effects | did not significantly reduce | did not induce statistically significant change | did not change |  |  | 
2 | O=C(CCn1c(=S)n(CCC(=O)NN=Cc2ccc(O)cc2O)c2ccccc21)NN=Cc1ccc(O)cc1O [3i, 3,3′-(2-Thioxo-1H-benzo[d]imidazole-1,3(2H)-diyl)bis(N′-(2,4-dihydroxybenzylidene)propanehydrazide)] | less pronounced protective effects | did not significantly reduce |  | did not significantly reduce; also recorded: did not change | 15 |  | 
3 | O=C(CCn1c(=S)n(CCC(=O)NN=Cc2ccccc2O)c2ccccc21)NN=Cc1ccccc1O [3e, 3,3′-(2-Thioxo-1H-benzo[d]imidazole-1,3(2H)-diyl)bis(N′-(2-hydroxybenzylidene)propanehydrazide)] | less pronounced protective effects | did not significantly reduce | did not induce statistically significant change | did not change |  |  | 
4 | O=C(CCn1c(=S)n(CCC(=O)NN=Cc2cccc(O)c2O)c2ccccc21)NN=Cc1cccc(O)c1O [3h, 3,3′-(2-Thioxo-1H-benzo[d]imidazole-1,3(2H)-diyl)bis(N′-(2,3-dihydroxybenzylidene)propanehydrazide)] |  | did not significantly reduce |  | did not significantly reduce; also recorded: did not change |  | 71 | 64
